In data set [1] the test system is USC-02 glioma cancer stem cells. In words: MTT cytotoxicity assay, USC-02 glioma cancer stem cells. The conditions noted are these: USC-02; increasing concentrations (TMZ 0-400 uM; POH 0-2 mM). It counts as cell-based. The source says: (§1) Cancer Lett. 2011 Mar. 28; 302(2):100-8.
For orientation: Tetrazolium assays rely on reduction of a dye to a coloured formazan, in cell work by metabolically active cells.

Another data set relates to UV-B exposed skin. Briefly: UV-B induced skin damage in SKH-1 hairless mice. It counts as in vivo, mouse. The conditions noted are these: topical post exposure. The method, then: (§2) FIG. 23 illustrates the simulation of sunlight by irradiation with UVB lamps (310 nm). The irradiation was conducted in a phototoxicity testing chamber and fitted with a UV-B lamp providing with a spectral output of approximately 310 nm. The source of UVR was a short-wavelength UV lamp (VWR. Radnor, PA). The peak spectral output of this lamp was approximately 310 nm, with no energy detectable below 260 nm, approximately 0.6% between 260 and 280 nm (UV-C), 72.7% between 280 and 320 nm (UV-B), and 26.7% between 320 and 400 nm (UV-A). Radiation dosage of UV-B per irradiation was set at 54 mJ/cm^2 for the first week, 72 mJ/cm^2 for the second week, 90 mJ/cm^2 for the third week, and 108 mJ/cm^2 for the remaining weeks, as confirmed by a UV monitor. Each irradiation event was 10 minutes long.
POH-LA conjugate, linoleic acid, POH, and the additive combination of linoleic acid and POH were each suspended in glycerol:ethanol (90:10 vol/vol) to a final concentration of 10 nM with 50 μL and applied to each SKH-1 hairless mouse post UV-B exposure for treatment. The sunblock mouse was gently wiped on the exposure area with the sunblock towelette. […] In FIG. 23B, the mice were treated with the glycerol:ethanol vehicle only. In FIG. 23C, the mice were treated with POH. In FIG. 23D, the mice were treated with linoleic acid. In FIG. 23E, the mice were treated with an mixture of linoleic acid and POH. In FIG. 23F, the mice were treated with POH-LA conjugate. In FIG. 23G, the mice were treated with sunblock. The application of POH-LA conjugate to UV-B exposed tissue limits the amount of observable skin damage as compared to the untreated control (B) or the individual components of POH-LA conjugate either alone (POH—C and LA—D), in mixture (E), or with sunblock (G).
as §2, with “FIGS. 24A-D illustrates the” for “FIG. 23 illustrates the”, “UV lamp (VWR, Radnor, PA).” for “UV lamp (VWR. Radnor, PA).”, “second week, and 90 mJ/cm^2” for “second week, 90 mJ/cm^2”, “third week, as confirmed” for “third week, and 108 mJ/cm^2 for the remaining weeks, as confirmed”, “UV monitor.” for “UV monitor. Each irradiation event was 10 minutes long.”
POH-LA conjugate (FIG. 24A), linoleic acid (FIG. 24B), POH (FIG. 24C), and the additive combination of linoleic acid and POH (FIG. 24D) were each suspended in glycerol:ethanol (90:10 vol/vol) to a final concentration of 10 nM with 50 μL applied to each mouse post UV-B exposure for treatment. The application of POH-LA conjugate to UV-B exposed tissue limits the amount of observable skin damage as compared the individual components of POH-LA conjugate either alone or in mixture.
as §2, with “This example” for “FIG. 23”, “nm)” for “nm). The irradiation”, “(VWR,” for “(VWR.”, “monitor.” for “monitor. Each irradiation event was 10 minutes long.”
POH-LA conjugate, linoleic acid, POH, and the additive combination of linoleic acid and POH were each suspended in glycerol:ethanol (90:10 vol/vol) to a final concentration of 10 nM with 50 μL applied to each mouse post UV-B exposure for treatment. […]

Data set [2] relates to USC-04 glioma cancer stem cells. In words: MTT cytotoxicity assay, USC-04 glioma cancer stem cells. It counts as cell-based. The conditions noted are these: USC-04; increasing concentrations (TMZ 0-400 uM; POH 0-2 mM).
Text: as §1

Data set [3] has as its system skin inflammation induced by asTPA. Briefly: asTPA-induced skin inflammation in mice. It counts as in vivo, mouse. Particulars: topical, 3 days pretreatment plus 7 days asTPA, glycerol:ethanol (90:10). How it is done:
A first group of mice were pre-treated with a solution of 50 microliters (μL) of a conjugate of POH and linoleic acid (e.g., linoleoyl ester of POH) in a vehicle of a glycerol:ethanol (90:10) mixture. The POH-linoleic acid conjugate solution was applied on the hip flank of the mice for a period of 3 days. A second, control group of mice were treated solely with the glycerol:ethanol (90:10) vehicle.
After pre-treatment, skin inflammation was induced on the first and second groups of mice by daily cutaneous application of an acetonic solution of 12-0-Tetradecanoylphorbol-13-acetate (asTPA) (which is a known irritant) to the backs of the mice over seven days. The asTPA was not applied to a further control group. To facilitate application of the asTPA, mice were anaesthetized by inhalation of isofluorane. 100 microliters of asTPA (corresponding to 20 micrograms (μg) of TPA) was then applied onto the skin of the mice. Upon evaporation of the asTPA, the mice were returned to their cages.
During the seven-day period in which the first and second groups of mice were subjected to application of asTPA, the first group continued to receive treatment of the POH-linoleic acid conjugate and vehicle solution, and the second group continued to receive treatment of the vehicle. At the end of the seven-day period, the mice were photographed.

Where [4] appears, read: 3 weeks of UV-B exposure and treatment.
[5] abbreviates: 5 weeks of UV-B exposure and treatment.

Take `C=C(C)[C@@H]1CC=C(CO)CC1` [POH, perillyl alcohol]: the “cytotoxicity (MTT)” value in data set [1] and in data set [2] was “demonstrated cytotoxicity” each time. The observable skin damage entry in the data set on UV-B exposed skin (setting [4]) and with UV-B exposed skin (setting [5]) was “displayed damage” in each case.

For the compound `C=C(C)[C@@H]1CC=C(COC(=O)CCCCCCC/C=C\C/C=C\CCCCC)CC1` [POH-LA conjugate, Octadeca-9,12-dienoic acid 4-isopropenyl-cyclohex-1-enylmethyl ester], the observable skin damage entry in the data set on UV-B exposed skin (setting [4]) is “displayed no damage”; with UV-B exposed skin (setting [5]), “appeared the same as the unexposed control mice skin”. Also, the “skin appearance where asTPA was applied” value in data set [3] is reported as “no inflammation or flaking”.

The values above are taken from patent US20240197891A1, “PHARMACEUTICAL COMPOSITIONS COMPRISING POH DERIVATIVES” (UNIVERSITY OF SOUTHERN CALIFORNIA, priority 2021, published 2024).
